Laboratory results as given in ChEMBL document CHEMBL3120106, “Novel compounds lowering the cellular isoform of the human prion protein in cultured human cells” (Bioorg Med Chem, 2014).

How the values were obtained:
[1] = Cmax in CD-1 mouse brain at 10 mg/kg, po administered via gavage as single dose by LC/MS/MS analysis; format: ADME, organism-based; design: dose 10 mg/kg, route oral
[2] = Cmax in CD-1 mouse plasma at 10 mg/kg, po administered via gavage as single dose by LC/MS/MS analysis; format: ADME, organism-based; design: dose 10 mg/kg, route oral
[3] = Cmax in CD-1 mouse brain at 10 mg/kg, ip administered as single dose by LC/MS/MS analysis; format: ADME, organism-based; design: dose 10 mg/kg, route intraperitoneal
T98G [4] = assay: cells; conditions: Homo sapiens, 48 h
T98G [5] = assay: Cytotoxicity against human T98G cells assessed as decrease in cell viability after 2 days by calcein AM assay; format: cell-based; conditions: 48 h, read-out: LC50 (the source's name)
[6] = Metabolic stability in mouse liver microsomes assessed as compound remaining at 1 uM after 60 mins by LC/MS/MS analysis; format: ADME, Microsome; conditions: 1 h
Liver microsome [7] = assay: Metabolic stability in human liver microsomes assessed as compound remaining at 1 uM after 60 mins by LC/MS/MS analysis; format: ADME; conditions: 1 h
[8] = Half life in mouse liver microsomes at 1 uM by LC/MS/MS analysis; format: ADME, Microsome
Liver microsome [9] = assay: Half life in human liver microsomes at 1 uM by LC/MS/MS analysis; format: ADME

| SMILES | Cmax [1] [nM] | Cmax [2] [nM] | Cmax [3] [nM] | EC50 (T98G [4]) [nM] | CC50 (T98G [5]) [nM] | Stability [6] [%] | Stability (Liver microsome [7]) [%] | t1/2 [8] [min] | t1/2 (Liver microsome [9]) [min] |
| --- | --- | --- | --- | --- | --- | --- | --- | --- | --- |
| CCc1nnc(NC(=O)c2ccoc2COc2ccccc2)s1 | < 100 | < 100 | ≤ 16200 | 2240 | – | – | – | – | – |
| O=C(Nc1ccc(I)cn1)c1cccc(F)c1 | < 100 | < 100 | ≤ 16200 | 450 | – | – | – | – | – |
| COc1ccc(CC(=O)NCc2ccccc2)cc1 | – | – | – | 3130 | > 10000 | – | – | – | – |
| COc1ccc(Cl)cc1C(=O)N1CCN(c2cccc(Cl)c2)CC1 | < 100 | < 100 | ≤ 16200 | 170 | – | 0.1 | 0.1 | 3 | 6 |
| CCOC(=O)c1[nH]c2c(c1C)C(=O)CC(c1ccccc1)C2 (configuration not stated) | < 100 | < 100 | ≤ 16200 | 110 | – | – | – | – | – |
| CCOc1ccc(Nc2nc(-c3c(C)nc4sccn34)cs2)cc1 | < 100 | < 100 | ≤ 16200 | 30 | – | 0.5 | 1.5 | 4.5 | 9.6 |
| Cc1nc2sccn2c1-c1csc(Nc2ccc(N(C)C)nc2)n1 | < 100 | < 100 | ≤ 16200 | 220 | – | – | – | – | – |
| COc1ccc(Cl)cc1C(=O)N1CC(=O)Nc2ccccc21 | < 100 | < 100 | ≤ 16200 | 650 | – | – | – | – | – |
| Cc1nc2ncccn2c1-c1csc(Nc2ccc(Cl)cc2)n1 | – | – | – | 2440 | – | – | – | – | – |
| O=C(Cc1ccc(Br)cc1)NCc1ccccc1 | – | – | – | 2330 | > 10000 | – | – | – | – |
| COc1ccccc1C(=O)N1CCN(c2ccccc2OC)CC1 | < 100 | < 100 | ≤ 16200 | 3240 | – | – | – | – | – |
| COc1ccc(Cl)cc1NS(=O)(=O)c1ccc(N2CCCC2=O)cc1 | < 100 | < 100 | ≤ 16200 | 510 | – | – | – | – | – |
| COC(=O)c1[nH]c2c(c1C)C(=O)CC(c1cccs1)C2 (configuration not stated) | < 100 | < 100 | ≤ 16200 | 410 | – | – | – | – | – |
| Cc1c(C(=O)OC(C)C)[nH]c2c1C(=O)CC(c1cccs1)C2 (configuration not stated) | < 100 | < 100 | ≤ 16200 | 240 | – | 0.1 | 1.6 | 3.2 | 9.9 |
| CN(C)c1ccc2c(c1)OC(N)=C(C#N)C2c1cccc(F)c1 (configuration not stated) | < 100 | < 100 | ≤ 16200 | 30 | – | – | – | – | – |
| COc1ccc(S(=O)(=O)N2CCOc3ccccc32)cc1 | < 100 | < 100 | ≤ 16200 | 1320 | – | 0 | 0 | 0.7 | 2 |
| CC1=CC(C)(C)N(S(=O)(=O)c2ccc(C)cc2)c2cc(C)ccc21 | < 100 | < 100 | ≤ 16200 | 3770 | – | – | – | – | – |
